From US20220373437A1, “SYSTEM FOR EVALUATING CHEMO-PREVENTIVE POTENTIAL OF PHC AND ITS PREPARED CHITOSAN NANOPARTICLES” (priority 2022, published 2022)

Assays:
Type in all cases: in vivo, Wistar rats
[1] = system: DEN induced hepatocellular carcinoma; assay: Total bilirubin, total protein, albumin, globulin and A/G ratio in DEN + CCl4 induced HCC rats; details: ANOVA followed by Dunnett's t-test vs HCC group
Protocol: (§1) In an embodiment, an injection 106 is used for inducing Hepatocellular Carcinoma (HCC), wherein for the induction of HCC, rats administered single intraperitoneal injection of DEN (200 mg/kg body weight) followed by weekly subcutaneous injections of carbon tetrachloride (3 ml/kg body weight) for 6 weeks, wherein the rats are divided into eight groups, from which group 1 is served as normal control, and group 2-8 are given single dose of DEN and repeated dose of CCl4 till the completion of the experimental duration of 16 weeks, wherein freshly prepared solution of DEN in normal saline is used for the induction of HCC in rats by administering 200 mg/kg, i.p., PHC (2:1:1) is dispersed in normal saline suspension to administer at doses of 900 mg/kg, p.o and 1935 mg/kg p.o. Soranib (Sorafenib 200 mg) tablets are powdered and dissolve in normal saline solution and the freshly prepared solution is used as standard drug.
(§2) In an embodiment, a collection unit 108 is used for collecting serum and tissue samples after anesthetizing overnight fasted rats using intraperitoneal administration of thiopentone sodium at a dose of 40 mg/kg, wherein the blood sample is collected by retro-orbital plexus followed by cardiac puncture.
In another embodiment, the treatment unit 110 comprises a centrifuge 116 for centrifugating the collected sample of blood at 3000 rpm for 10 minutes to separate the serum, which is kept at −20° C. until further analysis.
In another embodiment, the live markers are selected from a group comprising Alanine Aminotransaminase (ALT)/Serum Glutamate Pyruvate Transaminase (SGPT), Aspartate Aminotransaminase (AST)/Serum Glutamate Oxaloacetate Transaminase (SGOT), Alkaline Phosphatase (ALP), Lactate dehydrogenase (LDH), total protein, albumin, globulin and total bilirubin.
FIG. 6 illustrates effect on total bilirubin, total protein, albumin and globulin in control and experimental groups in accordance with an embodiment of the present disclosure. All values are expressed as mean±Standard deviation (SD) (n=6) except n=5 in Plant ‘c’ group. Statistical analysis is done using One way Analysis of Variance (ANOVA) followed by Dunnett's t-test using GraphPad Prism Version 8.0.1. Where, HCC is compared with NC group while the treatment groups (Plant ‘a’, Plant ‘b’, Plant ‘c’, PHC (2:1:1), CNP-EL and STD) are compared with HCC group. ^#P<0.0001 is very highly significant when compared with NC, ^aP<0.0001 is very highly significant, ^bP<0.001 is highly significant, ^cP<0.01 is very significant, ^dP<0.05 is significant and ns=not significant when compared with HCC group. Where NC is normal control group; HCC is hepatocellular carcinoma group; Plant ‘a’ group is Berberis aristata treated group; Plant ‘b’ group is Andrographis paniculata treated group; Plant ‘c’ group is Thevetia peruviana treated group; PHC (2:1:1) group is Polyherbal combination of 2:1:1 treated group; CNP-EL group is Chitosan nanoparticles of PHC (2:1:1) treated group and STD group is Standard Sorafenib treated group. Unit: Bilirubin: mg/dl, Total protein, Albumin and globulin: gm/dl.

[2] = system: DEN induced hepatocellular carcinoma; assay: Lipid peroxidation (MDA) in liver tissue homogenates of DEN + CCl4 induced HCC rats; details: vs HCC group
Protocol: as §1
In one embodiment, a tissue homogenizer 120 is coupled to the treatment unit 110 for preparing ten percentage homogenates of liver tissue. […]
FIG. 7 illustrates effect on lipid peroxidation (LPO) in control and experimental groups in accordance with an embodiment of the present disclosure. All values are expressed as mean±Standard deviation (SD) (n=6) except n=5 in Plant ‘c’ group. […]
Malondialdehyde (MDA), an end product of LPO is assessed in the tumor tissues homogenates. […]

[3] = system: DEN induced hepatocellular carcinoma; assay: Macroscopic hepatic nodule incidence in DEN + CCl4 induced HCC rats; details: DEN 200 mg/kg i.p. + weekly CCl4 s.c., 16 weeks, HCC control group 6-7 nodules, normal control none
Protocol: as §1
In another embodiment, all the rats are allowed to consume commercial pellet diet during the course of the study, wherein eight groups of rat are differentiated into six groups consisting of eight rats and two groups consisting of twelve rats.
In one embodiment, a refrigerator 124 is coupled to the treatment unit 110 for storing the tissues at −20° C. and observing the presence of nodules using the UV spectrophotometer 114. […]

[4] = system: DEN induced hepatocellular carcinoma; assay: Liver histopathology (H and E stained sections) in DEN + CCl4 induced HCC rats; details: 16 weeks
Protocol: as §1, §2
In one embodiment, a micropipette 122 is coupled to the treatment unit 110 for pouring formalin solution for histopathological examination. […]

SMILES: CNC(=O)c1cc(Oc2ccc(NC(=O)Nc3ccc(Cl)c(C(F)(F)F)c3)cc2)ccn1 [STD, Sorafenib]
- A/G ratio, change compared to HCC group [1]: very highly significant (^aP<0.0001) increased
- level of albumin, change compared to HCC group [1]: very highly significant (^aP<0.0001) increased
- level of globulin, change compared to HCC group [1]: very highly significant (^aP<0.0001) increased
- level of total bilirubin, change compared to HCC group [1]: very highly significantly (^aP<0.0001) decreased
- level of total protein, change compared to HCC group [1]: very highly significant (^aP<0.0001) increased
- levels of MDA (lipid peroxidation), change compared to HCC group [2]: very highly significant (^aP<0.0001) decreased
- number of macroscopically visible hepatic nodules [3]: 0-1
- histopathology of H and E stained section of liver (40×) [4]: hepatic tissue with cytoplasm, less necrosis of cell, altered hepatocytes and hepatocellular architecture
